Experimental data from patent US7348440B2, “Mitotic kinesin inhibitors” (Merck & Co., Inc., priority 2002, dated 2008).
pIC50: −log10 of the molar value.

Each compound was assayed against T1, human KSP motor domain (KSP(367H)) (Homo sapiens, UniProt P52732) (assay: Kinesin ATPase In Vitro Assay). Details: not given.
T1 construct: were used to amplify the motor domain and the neck linker region; made in house; host or cells: E. coli BL21 (DE3), pRSETa vector
T1 sequence (P52732 18-359 limits assumed): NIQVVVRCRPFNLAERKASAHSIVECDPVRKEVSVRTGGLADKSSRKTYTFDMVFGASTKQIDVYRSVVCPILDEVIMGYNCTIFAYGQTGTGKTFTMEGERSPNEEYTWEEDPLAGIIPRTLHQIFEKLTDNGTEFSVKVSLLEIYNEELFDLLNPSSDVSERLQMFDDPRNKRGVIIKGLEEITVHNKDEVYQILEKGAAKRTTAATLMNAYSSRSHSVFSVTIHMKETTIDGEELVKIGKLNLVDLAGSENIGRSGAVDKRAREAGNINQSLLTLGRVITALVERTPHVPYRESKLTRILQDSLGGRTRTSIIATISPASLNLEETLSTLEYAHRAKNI
Assay type: biochemical
Protocol: I. Kinesin ATPase In Vitro Assay
The N-terminal primer 5′-[…] (SEQ.ID.NO.: 1) and the C-terminal primer 5′-[…] […] (SEQ.ID.NO.: 2) were used to amplify the motor domain and the neck linker region. The PCR products were digested with AseI and XhoI, ligated into the NdeI/XhoI digestion product of pRSETa (Invitrogen) and transformed into E. coli BL21 (DE3).
Cells were grown at 37° C. to an OD600 of 0.5. After cooling the culture to room temperature expression of KSP was induced with 100 μM IPTG and incubation was continued overnight. Cells were pelleted by centrifugation and washed once with ice-cold PBS. Pellets were flash-frozen and stored −80° C.
Cell pellets were thawed on ice and resuspended in lysis buffer (50 mM K-HEPES, pH 8.0, 250 mM KCl, 0.1% Tween, 10 mM imidazole, 0.5 mM Mg-ATP, 1 mM PMSF, 2 mM benzimidine, 1× complete protease inhibitor cocktail (Roche)). Cell suspensions were incubated with 1 mg/ml lysozyme and 5 mM β-mercaptoethanol on ice for 10 minutes, followed by sonication (3×30 sec). All subsequent procedures were performed at 4° C. Lysates were centrifuged at 40,000×g for 40 minutes. Supernatants were diluted and loaded onto an SP Sepharose column (Pharmacia, 5 ml cartridge) in buffer A (50 mM K-HEPES, pH 6.8, 1 mM MgCl2, 1 mM EGTA, 10 μM Mg-ATP, 1 mM DTT) and eluted with a 0 to 750 mM KCl gradient in buffer A. Fractions containing KSP were pooled and incubated with Ni-NTA resin (Qiagen) for one hour. The resin was washed three times with buffer B (Lysis buffer minus PMSF and protease inhibitor cocktail), followed by three 15-minute incubations and washes with buffer B. Finally, the resin was incubated and washed for 15 minutes three times with buffer C (same as buffer B except for pH 6.0) and poured into a column. KSP was eluted with elution buffer (identical to buffer B except for 150 mM KCl and 250 mM imidazole). KSP-containing fractions were pooled, made 10% in sucrose, and stored at −80° C.
Microtubules are prepared from tubulin isolated from bovine brain. Purified tubulin (>97% MAP-free) at 1 mg/ml is polymerized at 37° C. in the presence of 10 μM paclitaxel, 1 mM DTT, 1 mM GTP in BRB80 buffer (80 mM K-PIPES, 1 mM EGTA, 1 mM MgCl2 at pH 6.8). The resulting microtubules are separated from non-polymerized tubulin by ultracentrifugation and removal of the supernatant. The pellet, containing the microtubules, is gently resuspended in 10 μM paclitaxel, 1 mM DTT, 50 μg/ml ampicillin, and 5 μg/ml chloramphenicol in BRB80.
The kinesin motor domain is incubated with microtubules, 1 mM ATP (1:1 MgCl2: Na-ATP), and compound at 23° C. in buffer containing 80 mM K-HEPES (pH 7.0), 1 mM EGTA, 1 mM DTT, 1 mM MgCl2, and 50 mM KCl. The reaction is terminated by a 2-10 fold dilution with a final buffer composition of 80 mM HEPES and 50 mM EDTA (or, alternately, with a 1:1 addition of reaction volume to stop buffer(1.8M KCl and 50 mM EDTA)). Free phosphate from the ATP hydrolysis reaction is measured via a quinaldine red/ammonium molybdate assay by adding a 1.5 times volume of quench C (e.g., to a mixture of 40 μl reaction volume+40 μl stop buffer is then added 120 μl quench C). […] Quench C is a 2:1 ratio of quench A:quench B The reaction is incubated for 5-10 minutes at 23° C., and the absorbance of the phospho-molybdate complex is measured at 540 nm.

Row | SMILES | pIC50
1 | CN(C(=O)N1CC(c2cc(F)ccc2F)=C[C@H]1c1ccccc1)C1CCNCC1 [18-4, (2S)-4-(2,5-Difluorophenyl)-N-methyl-2-phenyl-N-piperidin-4-yl-2,5-dihydro-1H-pyrrole-1-carboxamide] | ≥ 4.30

Same assay, conditions: kinesin motor domain incubated with microtubules, 1 mM ATP and compound at 23° C.; free phosphate by quinaldine red/ammonium molybdate, absorbance 540 nm; read-out: IC50

Row | SMILES | pIC50
2 | CC(C)(O)C(=O)N1CC(c2cc(F)ccc2F)=CC1c1ccccc1 (stereo not shown) [11-1, 1-[4-(2,5-difluorophenyl)-2-phenyl-2,5-dihydro-1H-pyrrol-1-yl]-2-methyl-1-oxopropan-2-ol] | ≥ 4.30
3 | CN(CC1CCNCC1)C(=O)N1CC(c2cc(F)ccc2F)=C[C@H]1c1ccccc1 [18a-6, (2S)-4-(2,5-Difluorophenyl)-N-methyl-2-phenyl-N-(piperidin-4-ylmethyl)-2,5-dihydro-1H-pyrrole-1-carboxamide] | ≥ 4.30
4 | CN(C(=O)N1CC(c2cc(Cl)ccc2F)=C[C@H]1c1ccccc1)[C@@H]1CCNC1 [18b-8, (2S)-4-(5-Chloro-2-fluorophenyl)-N-methyl-2-phenyl-N-[(3R)-pyrrolidin-3-yl]-2,5-dihydro-1H-pyrrole-1-carboxamide] | ≥ 4.30
5 | CC(C)(C)OC(=O)N1CC(OS(=O)(=O)C(F)(F)F)=C[C@H]1c1ccccc1 [compound 54, (2S)-tert-butyl 2-phenyl-4-{[(trifluoromethyl)sulfonyl]oxy}-2,5-dihydro-1H-pyrrole-1-carboxylate] | ≥ 4.30
6 | CN(C)C(=O)N1CC(c2cc(F)ccc2Cl)=CC1c1ccccc1 (stereo not shown) [1-6, 4-(2-chloro-5-fluorophenyl)-N,N-dimethyl-2-phenyl-2,5-dihydro-1H-pyrrole-1-carboxamide] | ≥ 4.30
7 | CN(C)C(=O)N1CC(c2cc(C(F)(F)F)ccc2F)C=C1c1ccccc1 (stereo not shown) [3-2, 3-[2-fluoro-5-(trifluoromethyl)phenyl]-N,N-dimethyl-5-phenyl-2,3-dihydro-1H-pyrrole-1-carboxamide] | ≥ 4.30
8 | [C-]#[N+]c1ccc(F)c(C2=CC(c3ccccc3)N(C(=O)N(C)C)C2)c1 (stereo not shown) [13-1, 4-(2-fluoro-5-isocyanophenyl)-N,N-dimethyl-2-phenyl-2,5-dihydro-1H-pyrrole-1-carboxamide] | ≥ 4.30

Further lines, results first:

Row | pIC50 | SMILES
9 | ≥ 4.30 | CC(C)(N)C(=O)N1CC(c2cc(F)ccc2F)=CC1c1ccccc1 (stereo not shown) [12-1, 1-[4-(2,5-difluorophenyl)-2-phenyl-2,5-dihydro-1H-pyrrol-1-yl]-2-methyl-1-oxopropan-2-amine]
10 | ≥ 4.30 | CC(=O)N1CC(c2cc(F)ccc2F)=CC1c1ccccc1 (stereo not shown) [9-1, 1-acetyl-4-(2,5-difluorophenyl)-2-phenyl-2,5-dihydro-1H-pyrrole]
11 | ≥ 4.30 | CCS(=O)(=O)C(C)CN1CC(c2cc(F)ccc2F)=C[C@H]1c1ccccc1 (single isomer, unassigned) [38-1]
12 | ≥ 4.30 | CN(C)CCS(=O)(=O)N1CC(c2cc(F)ccc2F)=CC1c1ccccc1 (stereo not shown) [8-2, 2-{[4-(2,5-difluorophenyl)-2-phenyl-2,5-dihydro-1H-pyrrol-1-yl]sulfonyl}-N,N-dimethylethanamine]
13 | ≥ 4.30 | NCCS(=O)(=O)N1CC(c2cc(F)ccc2F)=CC1c1ccccc1 (stereo not shown) [7-2, 2-{[4-(2,5-difluorophenyl)-2-phenyl-2,5-dihydro-1H-pyrrol-1-yl]sulfonyl}ethanamine]
